Assay results: patent US9587471B2, “Controlling bioavailability of nutrient additions in subsurface formations” (E I DU PONT DE NEMOURS AND COMPANY, priority 2008, dated 2017)
Counter-ions that a name gives are not always drawn.

Key:
[1] = tested on: Pseudomonas stutzeri strain LH4:15 (ATCC PTA-8823); assay: Aerobic growth response (turbidity) to varying concentrations of industrial preservatives; assay type: cell-based;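 on growth (turbidity): single plus means slight turbidity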
Description: (§1) Typically cells were grown at a temperature in the range of about 25° C. to about 40° C. in an appropriate medium.
Pseudomonas stutzeri strain LH4:15 (ATCC PTA-8823) was grown as outlined in Example 1. Various preservatives commonly used in the food, cosmetic, and water treatment industries were tested for their inhibitory effect at various concentrations (Table 2). Growth was monitored visually and positive growth was indicated by moderate to heavy turbidity.

[2] = tested on: Pseudomonas stutzeri strain LH4:15, ATCC PTA-8823; assay: Aerobic growth response (turbidity) to varying concentrations of potential microbial nutrients; assay type: cell-based
Description: as §1
Additional potential microbial nutrients were added at various concentrations as outlined in Table 1. Growth was monitored visually with positive growth indicated by moderate to heavy turbidity.

[3] = tested on: Pseudomonas stutzeri strain LH4:15 (ATCC PTA-8823); assay: Anaerobic growth and survival: biocidal versus biostatic inhibition; assay type: cell-based; details: for change in Log cell number: day 0 vs day 7, anaerobic; for Final anaerobic vial OD: starting OD600 = 0.05
Description: In this invention, the anaerobic growth and survival was tested in 20 ml crimp-capped anaerobic vials, using a complete nutrient medium of the following composition: Na2HPO4.7H2O, 1.4 g/L, KH2PO4, 0.69 g/L, NH4Cl, 0.5 g/L, MgSO4.7H2O, 0.1/L g, SL-10 trace metals, 10 ml, NaCl, 7.5 g/L, NaHCO3, 7.2 g/L, sodium nitrate, 12 g/L, Na lactate, 7 g/L, yeast extract, 10 mg/L, pH 7.3-7.8.
The anaerobic growth and survival was tested as outlined above. […] Vials were inoculated using an overnight aerobic culture of Pseudomonas stutzeri strain LH4:15 (ATCC PTA-8823) in Luria Bertani medium (LB, Mediatech Inc., Herndon, Va.,) at a final OD600 of 0.05. Within 2 hours of inoculation, serial dilutions from each treatment vial were made into aerobic LB medium to determine the cell numbers at Day 0. After approximately 24 hours cell numbers were estimated by noting the highest positive dilution based on the presence or absence of turbidity in dilutions of 10^−1 to 10^−11 in the serial dilution plates. Cell numbers on Day 0 and Day 7 were measured to obtain a survival estimate during inhibitor exposure.

[4] = Decline (hydrolysis) of ethyl formate in injection water; assay type: physicochemical; details: in about four days, anaerobic, approximately 25° C., 0.2% added
Description: The growth delay allows deeper penetration into the oil well formation and more widespread MEOR activation.
(§2) Injection water was amended with sodium nitrate as electron acceptor plus a growth substrates. In addition 0.2% ethyl formate was added to the inhibited treatment. The injection water was incubated anaerobically at approximately 25° C. under an atmosphere of 80% nitrogen and 20% carbon dioxide, reflecting typical growth conditions in the North Slope oil well formations. Growth of the native populations, nitrate concentrations and ethyl formate concentrations were monitored over two weeks.

[5] = tested on: native anaerobic population in the injection water from the North Slope of Alaska; assay: Growth and nitrate+nitrite consumption of native populations in injection water; assay type: cell-based
Description: as §2

[6] = Partition coefficient in an oil/water system; assay type: physicochemical
Description: In this Example a contribution to inhibitor dissipation made by adsorption of the inhibitor into the oil phase may be observed. For example, nitrate as a nitrogen source and electron acceptor and glucose as a growth substrate, each at 25 g/L concentration, may be added in combination to the injection water stream. In addition, benzalkonium chloride may be added to the inhibited nutrient composition. The composition may be pumped into the oil well formation for 5 hours. The industrial biocide inhibits growth of microbial populations in the oil well formation independent of the added nutrient concentrations. As illustrated in Example 2 until the benzalkonium chloride reaches a concentration of <0.1 g/L, microbial growth is inhibited. Using physical parameters common in oil well formations found in unconsolidated sandstone regions of the North Slope, dispersion modeling determines that it will take approximately fourteen days for flow dispersion to dilute benzalkonium chloride to approximately <0.1 g/L. In addition, it may be empirically determined, through laboratory experimentation, that the partition coefficient for benzalkonium chloride in an oil/water system is approximately 10. Therefore, rather than adding benzalkonium chloride at 2% concentration based on dispersion modeling, it is added at a 10% initial concentration to counter act losses due to adsorption. […]

For `Cc1cc(O)ccc1Cl` [4-chloro-3-metyhl phenol], the “growth (turbidity)” value ([1]; 0.1 g/L) was “−”, the “growth (turbidity)” value ([1]; 0.5 g/L) was “−” and the “growth (turbidity)” value ([1]; 1 g/L) was “−”.
For `O=S(=O)([O-])[O-].OC[P+](CO)(CO)CO.OC[P+](CO)(CO)CO` [Bis(tetrakis(hydroxymethyl))phosphonium sulfate], the “growth (turbidity)” value ([1]; 0.1 g/L) was “++”, the “growth (turbidity)” value ([1]; 0.2 g/L) was “++” and the “growth (turbidity)” value ([1]; 0.3 g/L) was “−”. For the same compound, the “growth (turbidity)” value ([1]; 0.4 g/L) was “−”.
In the case of `CCCCCCCCCCCCN(C)C` [N,N,-dimethyldodecylamine], the “growth (turbidity)” value ([1]; 0.0001 g/L) was “++”, the “growth (turbidity)” value ([1]; 0.001 g/L) was “++” and the “growth (turbidity)” value ([1]; 0.005 g/L) was “++”. For the same compound, the “growth (turbidity)” value ([1]; 0.01 g/L) was “++”, the “growth (turbidity)” value ([1]; 0.1 g/L) was “−” and the “growth (turbidity)” value ([1]; 0.5 g/L) was “−”. For the same compound, the “growth (turbidity)” value ([1]; 1 g/L) was “−”.
With `CCOC=O` [Ethyl formate] the “Growth response (turbidity)” value ([2]; 0.1 g/L, 24 hours of incubation) was “++”, the “Growth response (turbidity)” value ([2]; 0.1 g/L, 48 hours of incubation) was “++” and the “Growth response (turbidity)” value ([2]; 0.1 g/L, 120 hours of incubation) was “++”. For the same compound, the “Growth response (turbidity)” value ([2]; 0.5 g/L, 24 hours of incubation) was “++”, the “Growth response (turbidity)” value ([2]; 0.5 g/L, 48 hours of incubation) was “++” and the “Growth response (turbidity)” value ([2]; 0.5 g/L, 120 hours of incubation) was “++”. For the same compound, the “Growth response (turbidity)” value ([2]; 1 g/L, 24 hours of incubation) was “++”, the “Growth response (turbidity)” value ([2]; 1 g/L, 48 hours of incubation) was “++” and the “Growth response (turbidity)” value ([2]; 1 g/L, 120 hours of incubation) was “++”. For the same compound, the “Growth response (turbidity)” value ([2]; 5 g/L, 24 hours of incubation) was “+”, the “Growth response (turbidity)” value ([2]; 5 g/L, 48 hours of incubation) was “++” and the “Growth response (turbidity)” value ([2]; 5 g/L, 120 hours of incubation) was “++”. The “Growth response (turbidity)” value ([2]; 25 g/L, 24 hours of incubation) was “−”, the “Growth response (turbidity)” value ([2]; 25 g/L, 48 hours of incubation) was “−” and the “Growth response (turbidity)” value ([2]; 25 g/L, 120 hours of incubation) was “−”. For the same compound, the “Growth response (turbidity)” value ([2]; 50 g/L, 24 hours of incubation) was “−”, the “Growth response (turbidity)” value ([2]; 50 g/L, 48 hours of incubation) was “−” and the “Growth response (turbidity)” value ([2]; 50 g/L, 120 hours of incubation) was “−”. For the same compound, the “change in Log cell number” value ([3]; 5 g/L) was −2, the “Final anaerobic vial OD” value ([3]; 5 g/L) was 0.02 and the “change in Log cell number” value ([3]; 10 g/L) was −6. For the same compound, the “Final anaerobic vial OD” value ([3]; 10 g/L) was 0.01, the “change in Log cell number” value ([3]; 25 g/L) was −6 and the “Final anaerobic vial OD” value ([3]; 25 g/L) was 0.005. The “change in Log cell number” value ([3]; 50 g/L) was “Dead”, the “Final anaerobic vial OD” value ([3]; 50 g/L) was 0.05 and the “change in Log cell number” value ([3]; 80 g/L) was “Dead”. For the same compound, the “Final anaerobic vial OD” value ([3]; 80 g/L) was 0.06, the “decline of ethyl formate concentration” value [4] was 10 fold and the “delay of maximum growth” value ([5]; 0.2% concentration) was “four”. For the same compound, the “effect on the maximum population in words” value ([5]; 0.2% concentration) was “longer maintenance of the maximum population”, the “mean nitrate+nitrite loss rate” value ([5]; 0.2% ethyl formate) was 190 ppm/day and the “consumption of electron acceptors nitrate+nitrite slower in the inhibited treatment” value ([5]; 0.2% ethyl formate vs no added ethyl formate) was 31%.
With `COC(=O)c1ccc(O)cc1` [Methylparaben] the “growth (turbidity)” value ([1]; 0.01 g/L) was “++”, the “growth (turbidity)” value ([1]; 0.05 g/L) was “++” and the “growth (turbidity)” value ([1]; 0.1 g/L) was “++”. For the same compound, the “growth (turbidity)” value ([1]; 0.5 g/L) was “+”, the “growth (turbidity)” value ([1]; 1 g/L) was “−” and the “growth (turbidity)” value ([1]; 2.5 g/L) was “−”. The “change in Log cell number” value ([3]; 0.5 g/L) was 0, the “Final anaerobic vial OD” value ([3]; 0.5 g/L) was 0.09 and the “change in Log cell number” value ([3]; 0.6 g/L) was 0. For the same compound, the “Final anaerobic vial OD” value ([3]; 0.6 g/L) was 0.05, the “change in Log cell number” value ([3]; 0.8 g/L) was 1 and the “Final anaerobic vial OD” value ([3]; 0.8 g/L) was 0.05. For the same compound, the “change in Log cell number” value ([3]; 1 g/L) was −1, the “Final anaerobic vial OD” value ([3]; 1 g/L) was 0.04 and the “change in Log cell number” value ([3]; 2.5 g/L) was −2. The “Final anaerobic vial OD” value ([3]; 2.5 g/L) was 0.01 and the “effectiveness of the inhibitor in words” value ([3]; judged by OD600 and cell killing, Table 3) was “showed this desirable property at the lowest efficacious concentrations”.
For Benzalkonium chloride, the “growth (turbidity)” value ([1]; 0.0001 g/L) was “++”, the “growth (turbidity)” value ([1]; 0.001 g/L) was “++” and the “growth (turbidity)” value ([1]; 0.005 g/L) was “++”. The “growth (turbidity)” value ([1]; 0.01 g/L) was “++”, the “growth (turbidity)” value ([1]; 0.1 g/L) was “−” and the “growth (turbidity)” value ([1]; 0.5 g/L) was “−”. The “growth (turbidity)” value ([1]; 1 g/L) was “−”, the “concentration that must be reached before inhibition of microbial growth ends” value ([1]; stated 'as illustrated in Example 2') was under 0.1 g/L and the “change in Log cell number” value ([3]; 0.01 g/L) was 0. The “Final anaerobic vial OD” value ([3]; 0.01 g/L) was 0.12, the “change in Log cell number” value ([3]; 0.04 g/L) was 0 and the “Final anaerobic vial OD” value ([3]; 0.04 g/L) was 0.01. For the same compound, the “change in Log cell number” value ([3]; 0.08 g/L) was −4, the “Final anaerobic vial OD” value ([3]; 0.08 g/L) was 0.02 and the “change in Log cell number” value ([3]; 0.1 g/L) was “Dead”. The “Final anaerobic vial OD” value ([3]; 0.1 g/L) was 0.02, the “change in Log cell number” value ([3]; 0.5 g/L) was “Dead” and the “Final anaerobic vial OD” value ([3]; 0.5 g/L) was 0.06. The “change in Log cell number” value ([3]; 1 g/L) was “Dead”, the “Final anaerobic vial OD” value ([3]; 1 g/L) was 0.32 and the “concentration that killed the cells on Day 0” value ([3]; anaerobic vials) was at least 0.1 g/L. For the same compound, the partition coefficient [6] was “approximately 10”.
In the case of `OCCOc1ccccc1` [2-phenoxy-ethan-1-ol], the “growth (turbidity)” value ([1]; 1 g/L) was “++”, the “growth (turbidity)” value ([1]; 2 g/L) was “++” and the “growth (turbidity)” value ([1]; 3 g/L) was “++”. The “growth (turbidity)” value ([1]; 4 g/L) was “−”.
